For twelve compounds, TGI results are on record in PubChem BioAssay (NCI).

The structures appear in SMILES notation.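 Grown in 96-well plates, cells were treated for 48 hours with each compound at five concentrations. Insufficient inhibition: endpoint recorded as highest concentration tested. The concentration for full growth arrest is given as TGI.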 Where a SMILES comes first, the peptide text is derived from it. The star is where a group is joined. Boc = CC(C)(C)OC(=O)*

Among the test systems are CCRF-CEM leukemia; CAKI-1 renal; NCI-H226 lung; RPMI-8226 leukemia; SK-MEL-5 melanoma; HL-60(TB) leukemia; HOP-62 NSCLC; T-47D breast; MOLT-4 leukemia; HCC-2998 colon.
What all share (assay): NCI tumour cell line growth inhibition, 48 h

In the case of `N[C@H]1c2c(Br)sc(Br)c2C(=O)[C@H]1O`, the TGI in the experiment with CCRF-CEM leukemia was determined as 6.63 µM; in the experiment on CAKI-1 renal it was 16.7 µM; in the experiment on NCI-H226 lung it was 62 µM; in the experiment on RPMI-8226 leukemia it was 57.4 µM; in the experiment on SK-MEL-5 melanoma it was 41.8 µM; in the experiment with HL-60(TB) leukemia, 10.5 µM. Besides, the TGI is 36.5 µM in the experiment on HOP-62 NSCLC, 50.3 µM with T-47D breast, over 22 µM in the experiment with MOLT-4 leukemia and 27.5 µM in the experiment with HCC-2998 colon.

Consider `CCC(=O)Nc1cccc(N=Cc2ccc(OC(=O)/C=C\c3ccccc3)cc2)c1`, for which the TGI with CCRF-CEM leukemia, in the experiment on CAKI-1 renal, in the experiment with NCI-H226 lung, with RPMI-8226 leukemia, in the experiment with SK-MEL-5 melanoma and in the experiment on HL-60(TB) leukemia was over 75 µM throughout. For the same compound, the TGI with HOP-62 NSCLC was over 75 µM; in the experiment with T-47D breast it was 37.7 µM; in the experiment with MOLT-4 leukemia it was over 75 µM; in the experiment with HCC-2998 colon, over 75 µM.

With `Cn1cnc(N2CCCC2)c(C#N)c1=S`, the TGI in the experiment with CCRF-CEM leukemia, in the experiment on CAKI-1 renal, in the experiment on NCI-H226 lung, in the experiment with RPMI-8226 leukemia, in the experiment with SK-MEL-5 melanoma and in the experiment on HL-60(TB) leukemia was over 100 µM throughout. In addition, the TGI in the experiment on HOP-62 NSCLC, in the experiment with T-47D breast, in the experiment with MOLT-4 leukemia and in the experiment with HCC-2998 colon was over 100 µM throughout.

Turning to `CC(C)(C)NC1=NC(C(F)(F)F)(C(F)(F)F)NC(=O)N1`, the TGI with CCRF-CEM leukemia was over 100 µM; in the experiment on CAKI-1 renal, over 100 µM; in the experiment with NCI-H226 lung it was over 100 µM; in the experiment with RPMI-8226 leukemia, over 100 µM; in the experiment on SK-MEL-5 melanoma it was 80.5 µM; in the experiment with HL-60(TB) leukemia, 59.6 µM. The TGI with HOP-62 NSCLC is over 100 µM; in the experiment with T-47D breast, over 100 µM; with MOLT-4 leukemia, over 100 µM; in the experiment on HCC-2998 colon, 79 µM.

`O=C1/C(=C/c2ccc(O)cc2)CCCC1CN1CCCCC1` (stereo not given): the TGI was over 100 µM with CCRF-CEM leukemia; 8.3 µM in the experiment with CAKI-1 renal; 18.2 µM in the experiment with NCI-H226 lung; over 100 µM with RPMI-8226 leukemia; 17.8 µM in the experiment on SK-MEL-5 melanoma; 0.924 µM with HL-60(TB) leukemia. Moreover, the TGI came to 29.8 µM in the experiment with HOP-62 NSCLC, 5.21 µM with T-47D breast, 4.82 µM with MOLT-4 leukemia and 17.2 µM in the experiment on HCC-2998 colon.

With `COc1cc(C2c3cc4c(cc3OC(NNc3ccccc3)C2C)OCO4)cc(OC)c1OC` (stereo not given), the TGI with CCRF-CEM leukemia was over 27.3 µM; in the experiment on CAKI-1 renal it was over 73 µM; in the experiment with NCI-H226 lung, 6.92 µM; with RPMI-8226 leukemia it was 31.8 µM; in the experiment with SK-MEL-5 melanoma it was 21 µM; with HL-60(TB) leukemia, 4.46 µM. The TGI with HOP-62 NSCLC is 10.4 µM; with T-47D breast, over 100 µM; with MOLT-4 leukemia, over 47.3 µM; in the experiment with HCC-2998 colon, 3.96 µM.

Turning to `C=C(C)[C@@H](O)[C@H](O)C[C@H](C)C1CC[C@]2(C)C1=CC[C@@H]1[C@@]3(C)CC[C@@H](OC(C)=O)C(C)(C)[C@@H]3C[C@@H](OC3OC(COC(C)=O)C(O)C(O)C3O)[C@]12C` (stereo not given in full), the TGI with CCRF-CEM leukemia was 5.95 µM; in the experiment on CAKI-1 renal it was 11.8 µM; with NCI-H226 lung it was 10.3 µM; in the experiment on RPMI-8226 leukemia, 4.43 µM; in the experiment on SK-MEL-5 melanoma it was 3.73 µM; with HL-60(TB) leukemia it was 4.2 µM. Moreover, the TGI with HOP-62 NSCLC is 10.1 µM; in the experiment with T-47D breast, 8.51 µM; with MOLT-4 leukemia, 4.5 µM; in the experiment on HCC-2998 colon, 1.69 µM.

For the compound `Cn1c2ccc(F)cc2c2ccc3c(c21)C(=O)C=CC3=O`, the TGI in the experiment on CCRF-CEM leukemia is 5.27 µM; in the experiment on CAKI-1 renal, 11.8 µM; in the experiment with NCI-H226 lung, over 91.3 µM; in the experiment on RPMI-8226 leukemia, 33.4 µM; in the experiment with SK-MEL-5 melanoma, 56.4 µM; in the experiment on HL-60(TB) leukemia it was 2 µM. In addition, the TGI in the experiment with HOP-62 NSCLC is over 100 µM; with T-47D breast, 9 µM; in the experiment on MOLT-4 leukemia, 13.2 µM; in the experiment with HCC-2998 colon, 67.7 µM.

In the case of `COc1cc(C2S/C(=C/c3ccccc3)C(=O)N2Cc2ccccc2)cc(OC)c1OC` (stereo not given), the TGI was 87.2 µM in the experiment on CCRF-CEM leukemia; over 100 µM in the experiment with CAKI-1 renal; over 100 µM in the experiment on NCI-H226 lung; over 100 µM in the experiment on RPMI-8226 leukemia; over 100 µM with SK-MEL-5 melanoma; over 100 µM in the experiment with HL-60(TB) leukemia. Also, the TGI in the experiment with HOP-62 NSCLC was over 100 µM; with T-47D breast, 41.1 µM; in the experiment on MOLT-4 leukemia, over 100 µM; in the experiment on HCC-2998 colon it was 69.4 µM.

In the case of `COC1=C[C@]2(CCC(=O)O2)[C@@H]2Cc3ccccc3[C@H](O)[C@@H]2C1=O`, the TGI with CCRF-CEM leukemia is 35.8 µM; with CAKI-1 renal, over 100 µM; in the experiment with NCI-H226 lung, over 100 µM; in the experiment with RPMI-8226 leukemia, 38.5 µM; in the experiment on SK-MEL-5 melanoma it was 33.7 µM; in the experiment with HL-60(TB) leukemia it was 77.6 µM. In addition, the TGI with HOP-62 NSCLC is over 100 µM; with T-47D breast, 37.7 µM; with MOLT-4 leukemia it was 38.9 µM; in the experiment on HCC-2998 colon, over 100 µM.

Take `Clc1ccc(CCNC2(c3cc4ccccc4s3)CCCCC2)cc1Cl`: the TGI is 31 µM with CCRF-CEM leukemia; over 100 µM in the experiment on CAKI-1 renal; 40.7 µM with NCI-H226 lung; 32.1 µM in the experiment with RPMI-8226 leukemia; 31.7 µM with SK-MEL-5 melanoma; 40.9 µM in the experiment with HL-60(TB) leukemia. Also, the TGI with HOP-62 NSCLC was determined as 84.3 µM; in the experiment on T-47D breast, 46 µM; in the experiment on MOLT-4 leukemia, 37.9 µM; in the experiment with HCC-2998 colon, 22.1 µM.

In the case of `COC(=O)C(Cc1ccccc1)NC(=O)C(CS)NC(=O)OC(C)(C)C` (stereo not drawn) (Boc-Cys-Phe-OMe; configuration not given here), the TGI was 89.3 µM with CCRF-CEM leukemia; over 100 µM in the experiment with CAKI-1 renal; over 100 µM in the experiment with NCI-H226 lung; over 100 µM in the experiment on RPMI-8226 leukemia; over 100 µM in the experiment on SK-MEL-5 melanoma; over 100 µM with HL-60(TB) leukemia. The TGI in the experiment on HOP-62 NSCLC was over 100 µM; in the experiment on T-47D breast, over 100 µM; in the experiment with MOLT-4 leukemia, 41.3 µM; with HCC-2998 colon, over 100 µM.
